Consider 14 compounds from US10358442B2, “2-homopiperazine-1-yl-4H-1,3-benzothiazine-4-one derivatives and process for the preparation of 2-(homo)piperazine 1,3-benzothiazine-4-one hydrochlorides” (Ecole Polytechnique Federale De Lausanne (EPFL), priority 2015, dated 2019).

Structures are written as SMILES. ≈ marks a conversion by molar mass, not a printed value.

In one data set the test system is M. tuberculosis H37Rv. Put plainly: resazurin reduction assay (MIC99), M. tuberculosis H37Rv. It counts as cell-based. The note with it: Mycobacterium tuberculosis, BTZ-susceptible wild type strain. The method, then: Activity against M. tuberculosis strains H37Rv and NBT1 was determined by the resazurin reduction assay (MIC99). The method is described in detail in: J. C. Palomino, A. Martin, M. Camacho, H. Guerra, J. Swings, F. Portaels, Antimicrob. Agents Chemother., 2002, 46, 2720-2722.
Background: Resazurin is reduced to fluorescent resorufin, in cell work by metabolically active cells.

One may read the melting point as the temperature of the solid-liquid transition. The compound `Cl.O=c1nc(N2CCN(CCCCOc3ccccc3)CC2)sc2c([N+](=O)[O-])cc(C(F)(F)F)cc12` showed a melting point of 256 to 258 °C.
As for `CCCCCCCN1CCN(c2nc(=O)c3cc(C(F)(F)F)cc([N+](=O)[O-])c3s2)CC1.Cl` (hydrate or solvate), the melting point lay within 254 to 256 °C.
The same measure, in the same setting: the same measure for `CCCCN1CCN(c2nc(=O)c3cc(C(F)(F)F)cc([N+](=O)[O-])c3s2)CC1.Cl` (hydrate or solvate): 239 to 241 °C; for `Cl.O=c1nc(N2CCN(CCC3CCCCC3)CC2)sc2c([N+](=O)[O-])cc(C(F)(F)F)cc12` (hydrate or solvate): 271 to 273 °C.
In turn, `Cl.O=c1nc(N2CCCN(C3CCCCC3)CC2)sc2c([N+](=O)[O-])cc(C(F)(F)F)cc12` (hydrate or solvate) [Compound 6, 2-(4-Cyclohexyl-1,4-diazepan-1-yl)-8-nitro-6-(trifluoromethyl)-4H-1,3-benzothiazin-4-one Hydrochloride] returned a melting point of 290 to 293 °C.
The same measure, in the same setting: the result for `Cl.O=c1nc(N2CCCN(CCc3ccccc3)CC2)sc2c([N+](=O)[O-])cc(C(F)(F)F)cc12` (hydrate or solvate) [Compound 7, 8-Nitro-2-[4-(2-phenylethyl)-1,4-diazepan-1-yl]-6-(trifluoromethyl)-4H-1,3-benzothiazin-4-one Hydrochloride] reads 264 to 267 °C.
For orientation: MIC99 means an inhibitory concentration at the 99% level, which refers to growth in some studies and to a panel of isolates in others. The compound `Cl.O=c1nc(N2CCCN(CC3CCCCC3)CC2)sc2c([N+](=O)[O-])cc(C(F)(F)F)cc12` [Compound 1, 2-[4-(Cyclohexylmethyl)-1,4-diazepan-1-yl]-8-nitro-6-(trifluoromethyl)-4H-1,3-benzothiazin-4-one Hydrochloride] displayed a melting point of 269 to 271 °C. The same compound gave an MIC99 in the data set on M. tuberculosis H37Rv of 1 ng/mL.
With `CCCCCN1CCCN(c2nc(=O)c3cc(C(F)(F)F)cc([N+](=O)[O-])c3s2)CC1.Cl` [Compound 2, 8-Nitro-2-(4-pentyl-1,4-diazepan-1-yl)-6-(trifluoromethyl)-4H-1,3-benzothiazin-4-one Hydrochloride], the melting point lay within 246 to 248 °C. This compound displayed an MIC99 against M. tuberculosis H37Rv of 0.2 ng/mL.
Taken in the same sequence, the figures for `CCCCCCN1CCCN(c2nc(=O)c3cc(C(F)(F)F)cc([N+](=O)[O-])c3s2)CC1.Cl` [Compound 3, 2-(4-Hexyl-1,4-diazepan-1-yl)-8-nitro-6-(trifluoromethyl)-4H-1,3-benzothiazin-4-one Hydrochloride] were 249 to 251 °C and 0.2 ng/mL.
The matching figures for `Cl.O=c1nc(N2CCCN(CCC3CCCCC3)CC2)sc2c([N+](=O)[O-])cc(C(F)(F)F)cc12` [Compound 4, 2-[4-(2-Cyclohexylethyl)-1,4-diazepan-1-yl]-8-nitro-6-(trifluoromethyl)-4H-1,3-benzothiazin-4-one Hydrochloride]: 274 to 277 °C and 0.2 ng/mL.
`CCCCCCCN1CCCN(c2nc(=O)c3cc(C(F)(F)F)cc([N+](=O)[O-])c3s2)CC1.Cl` [Compound 5, 2-(4-Heptyl-1,4-diazepan-1-yl)-8-nitro-6-(trifluoromethyl)-4H-1,3-benzothiazin-4-one Hydrochloride] displayed a melting point of 256 to 258 °C. Moreover, the MIC99 against M. tuberculosis H37Rv stood at 0.3 ng/mL.
In the data set with M. tuberculosis H37Rv, `Cl.O=c1nc(N2CCCN(C3CCCCC3)CC2)sc2c([N+](=O)[O-])cc(C(F)(F)F)cc12` [Compound 6, 2-(4-Cyclohexyl-1,4-diazepan-1-yl)-8-nitro-6-(trifluoromethyl)-4H-1,3-benzothiazin-4-one Hydrochloride] displayed an MIC99 of 1 ng/mL.
On the same count and under the same terms, the same measure for `Cl.O=c1nc(N2CCCN(CCc3ccccc3)CC2)sc2c([N+](=O)[O-])cc(C(F)(F)F)cc12` [Compound 7, 8-Nitro-2-[4-(2-phenylethyl)-1,4-diazepan-1-yl]-6-(trifluoromethyl)-4H-1,3-benzothiazin-4-one Hydrochloride]: 0.8 ng/mL.
On the same count and under the same terms, the same measure for `O=c1nc(N2CCN(CC3CCCCC3)CC2)sc2c([N+](=O)[O-])cc(C(F)(F)F)cc12` [PBTZ169, 2-[4-(cyclohexylmethyl)piperazin-1-yl]-8-nitro-6-(trifluoromethyl)-4H-1,3-benzothiazin-4-one, reference compound]: 0.3 ng/mL (≈ 0.657 nM).
